In publication PMC12392461, “Beyond Estrogenicity: A Comparative Assessment of Bisphenol A and Its Alternatives in In Vitro Assays Questions Safety of Replacements” (Environmental Science & Technology, 2025):

Assays:
Estrogen Receptor ERα [1] = biological target: T1, Estrogen Receptor ERα (Homo sapiens, UniProt P03372); assay: cell-based; conditions: for EC10, ERα (M): 10% of maximum effect of E2; for EC10, linear transformed / EC10, linear / logEC10: dosing range all; for EC10, linear transformed / EC10, linear / EC10: in M; for SR-ScoreERα: SR-Score, sigma k=1, x=5; for Efficacy % / EC10 / REPBPA: This Study; for EC10: ERα; for REPBPA: relative estrogenic potency vs BPA; for Specificity ratio (SRbaseline) SRERα: against baseline cytotoxicity; for EC10, ERα: effect; for log(1/EC10) ERα: input of the ToxPi score, values up to 1.00; for Relative effect potency REPERα: relative to BPA
T1 sequence (P03372 311-547 limits assumed): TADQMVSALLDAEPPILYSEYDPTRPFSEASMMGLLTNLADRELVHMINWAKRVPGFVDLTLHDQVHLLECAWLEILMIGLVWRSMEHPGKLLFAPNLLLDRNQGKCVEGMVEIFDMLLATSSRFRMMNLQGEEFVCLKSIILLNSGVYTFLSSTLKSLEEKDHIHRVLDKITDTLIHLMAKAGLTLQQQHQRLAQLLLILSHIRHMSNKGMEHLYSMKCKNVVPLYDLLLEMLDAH
How it was run: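 Reporter cells (ERα-UAS-bla GripTite; PPARγ-UAS-bla) grew 24 h at 37 °C, 5% CO₂ in medium containing 2% charcoal-stripped FBS. Cytotoxicity, tracked as IncuCyte confluency, capped data at IC10 for EC10 derivation. Emax% is the fitted log-logistic maximum expressed against the reference chemical's maximum.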

Estrogen Receptor ERα [2] = biological target: T1, Estrogen Receptor ERα; assay: aCYP oxidation followed by ERα-UAS-bla GripTite assay (TK-Ratio of effect); type: cell-based; conditions: for EC10, after oxidation / EC10, before oxidation: ERα, in M; for EC10, after oxidation: after abiotic CYP catalyst; for TKERα: TKERα-Ratio
Procedure: Cell culture conditions and bioassay protocols including response detection are provided in Text S2.1–2.4 and Table S3. − Cell viability was determined from cell confluency using an IncuCyte S3 Live-Cell Analysis System (Sartorius AG, Essen, Germany) before and after exposure, except for SH-SY5Y cells (live–dead staining with Nuclear Green LcS1 and propidium iodide, Abcam, UK). For metabolic activation experiments, cell viability was assessed using the ToxBLAzer DualScreen Kit (Thermo Fisher Scientific) to capture the remaining toxicity in ERα-UAS-bla GripTite after treatment with the aCYP catalyst (details in Text S2.4). […]
The TK-Ratio method was used to evaluate the impact of abiotic CYP oxidation on the potency of tested compounds. […]
For experiments with the preceding aCYP activation, ERα cell viability was additionally calculated from the readout of the ToxBLAzer reagent. The ToxBLAzer assay was conducted following the manufacturer's instructions (Thermo Fisher, Waltham, MA, U.S.).13 Fluorescence intensity was recorded at the start of the assay ( Fwavelength(0h)) and after a 2-hour incubation at […]
Cell viability was assessed based on the red fluorescence signal at 665 nm, applying eq. S11 for normalization.
Cell viability = F665nm(2h, sample)-F665nm(0h, average cell-free) (S11) F665nm(2h, average unexposed)-F665nm(0h, average cell-free) […]
the specific endpoint to avoid artifacts from cytotoxicity burst. 15
S2.5: Concentration-response curves (CRCs)
To avoid bias from cytotoxicity burst at higher concentrations, all concentrations exceeding the IC10 for cytotoxicity were excluded in the CRC modeling of effects but otherwise cytotoxicity and effects were fitted with the same model equations (response stands for cytotoxicity or effect). For ERα, AhR, ARE and PPARγ preferably a linear model was fitted to the linear portion of CRC up to maximum 30% effect (eq. S12),16 but in some cases it was necessary to choose a sigmoidal log-concentration-response model, specifically a log-logistic model (eq. S13), to derive effect concentrations and cytotoxicity. For mitochondrial toxicity and neurotoxicity, the […]
are not reporter gene assays. Common practice when using log-logistic models, e.g., the model implemented in tcpl package in R,17, 18 is that the minima and maxima are also fitted and only median effect concentrations AC50 are derived. […]
concentrations (EC10) for both linear and log-sigmoidal CRCs to allow absolute comparisons at the same effect level and for TR and SR -analysis. This was done using the AutomatedBioassayScreening19 published by Braun et al.,20 which also included an algorithm to choose the best model between eq. S12 and eq. S13.
Response (%) = slope × C (S12) […]
logEC =logEC − 1 ∙log (max−min − 100%) (S14)

SMILES | EC10, ERα (M) (Estrogen Receptor ERα [1]) | SR-ScoreERα (Estrogen Receptor ERα [1]) | Efficacy % (Estrogen Receptor ERα [1]) [%] | EC10 (Estrogen Receptor ERα [1]) | REPBPA (Estrogen Receptor ERα [1]) | Specificity ratio (SRbaseline) SRERα (Estrogen Receptor ERα [1]) | EC10, ERα (Estrogen Receptor ERα [1]) [mM] | log(1/EC10) ERα (Estrogen Receptor ERα [1]) | Relative effect potency REPERα (Estrogen Receptor ERα [1]) | EC10, before oxidation (Estrogen Receptor ERα [2]; Table S10) | further results
CC(C)c1cc(C(C)(C)c2ccc(O)c(C(C)C)c2)ccc1O [BPG, 2,2-Bis(4-hydroxy-3-isopropylphenyl)propane] | 9.02 × 10^–7 M | 0.94 | 19.01 | 9.02E-07 | 4.11E-01 | 1.60 | 0.000902 | 0.77 | 0.41 | 9.02E-07 | EC10, linear transformed (Estrogen Receptor ERα [1]; Bioassay ERα): 9.02E-07; EC10, linear (Estrogen Receptor ERα [1]; Bioassay ERα, linear model fit): 9.31E-07; logEC10 (Estrogen Receptor ERα [1]; Bioassay ERα, log-logistic model fit): -6.04; Specificity ratio (SRcytotoxicity) SRERα (Estrogen Receptor ERα [1]; against experimental cytotoxicity): 7.71; Emax (Estrogen Receptor ERα [1]; read-out: Emax%ERα, maximum efficacy relative to E2): 19%; EC10, after oxidation (Estrogen Receptor ERα [2]; Table S10): 3.40E-06; TKERα (Estrogen Receptor ERα [2]; Table S10): 0.2649; EC10, after oxidation (Estrogen Receptor ERα [2]; Table S11): 1.51E-05; EC10, before oxidation (Estrogen Receptor ERα [2]; Table S11): 9.71E-06; TKERα (Estrogen Receptor ERα [2]; Table S11): 0.64
CC1(C)C(O)C(C)(C)C1O (racemic) [r-TMCD, 2,2,4,4-Tetramethyl-1,3-cyclobutanediol (racemate)] | 1.29 × 10^–2 M | 0.00722 | <20 | 1.29E-02 | 2.88E-05 | 0.08 | 12.9 | 0.24 | 2.88e-5 | 1.18E-02 | REPBPA,ERα (relative effect potency in relation to BPA) (Estrogen Receptor ERα [1]; EC10,BPA/EC10,BPx): 2.9 × 10^–5; EC10, linear transformed (Estrogen Receptor ERα [1]; ERα bioassay): 1.18E-02; EC10, linear (Estrogen Receptor ERα [1]; ERα bioassay, linear model): 1.29E-02; logEC10 (Estrogen Receptor ERα [1]; ERα bioassay, log-logistic model): -1.93
